Data: patent US11111237B2, “Bicyclic compound and use thereof” (SK BIOPHARMACEUTICALS CO., LTD., priority 2019, dated 2021)

Biological target: PRMT5-MEP50 enzyme complex (Homo sapiens (Human), UniProt O14744)
Assay: PRMT5 enzyme activity in vitro assay (methylation of histone H4R3, ELISA absorbance at 450 nm)
Format: biochemical
Details: SAM, histone H4 peptide, room temperature 2 hours, 8 points from 10 μM to 0.128 nM
Procedure, shortened: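 Human PRMT5-MEP50 was prepared at 5 μg/mL with SAM at 2 μM and reacted 2 h at room temperature on plate-coated histone H4 (1-20) peptide. An 8-point 1:5 compound series ran from 10 μM to 0.128 nM. H4R3 methylation was detected by antibody/HRP ELISA at 450 nm to give IC50.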

Chain of PRMT5-MEP50 enzyme complex (O14744 2-637): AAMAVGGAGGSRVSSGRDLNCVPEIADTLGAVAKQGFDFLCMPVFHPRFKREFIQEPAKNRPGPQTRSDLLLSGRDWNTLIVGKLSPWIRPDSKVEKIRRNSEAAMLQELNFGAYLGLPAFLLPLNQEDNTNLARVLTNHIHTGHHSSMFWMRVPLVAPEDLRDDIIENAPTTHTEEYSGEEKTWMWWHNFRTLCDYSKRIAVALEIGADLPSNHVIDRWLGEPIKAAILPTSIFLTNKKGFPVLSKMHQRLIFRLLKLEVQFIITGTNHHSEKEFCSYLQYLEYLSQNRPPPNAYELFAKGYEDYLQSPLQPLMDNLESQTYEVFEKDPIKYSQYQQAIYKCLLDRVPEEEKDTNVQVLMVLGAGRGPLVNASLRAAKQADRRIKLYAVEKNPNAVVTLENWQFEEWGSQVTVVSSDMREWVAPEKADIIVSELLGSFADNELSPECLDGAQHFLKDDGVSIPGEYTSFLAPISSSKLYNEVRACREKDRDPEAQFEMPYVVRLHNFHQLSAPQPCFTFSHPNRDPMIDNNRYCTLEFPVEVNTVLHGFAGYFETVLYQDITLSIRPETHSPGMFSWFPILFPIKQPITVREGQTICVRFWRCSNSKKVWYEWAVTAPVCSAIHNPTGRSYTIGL
Chain of PRMT5-MEP50 enzyme complex (Q9BQA1 2-342 partner): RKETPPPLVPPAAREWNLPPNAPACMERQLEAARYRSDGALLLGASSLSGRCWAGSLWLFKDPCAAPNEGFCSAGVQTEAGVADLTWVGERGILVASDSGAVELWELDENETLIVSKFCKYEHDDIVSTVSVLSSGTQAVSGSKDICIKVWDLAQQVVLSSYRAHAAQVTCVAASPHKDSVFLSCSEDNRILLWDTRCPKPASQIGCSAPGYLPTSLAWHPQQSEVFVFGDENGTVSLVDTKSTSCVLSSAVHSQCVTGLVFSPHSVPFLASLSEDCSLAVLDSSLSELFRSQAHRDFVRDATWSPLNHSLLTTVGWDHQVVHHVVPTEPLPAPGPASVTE

Row | Compound | IC50 [µM]
1 | O=C1c2ccc(CN3CCC4(CC3)COC4)cc2OCCN1C[C@H](O)CN1CCc2ccccc2C1 [Example 251, 4-[(2R)-3-(3,4-dihydro-1H-isoquinolin-2-yl)-2-hydroxypropyl]-8-(2-oxa-7-azaspiro[3.5]nonan-7-ylmethyl)-2,3-dihydro-1,4-benzoxazepin-5-one] | 0.1 to 1
2 | CC(O)CN1CCC(Oc2ccc3c(c2)O[C@H](C)CN(C[C@H](O)CN2CCc4ccccc4C2)C3=O)CC1 (stereo partly drawn) [Example 245, (2R)-4-[(2R)-3-(3,4-dihydro-1H-isoquinolin-2-yl)-2-hydroxy-propyl]-8-[[1-(2-hydroxypropyl)-4-piperidyl]oxy]-2-methyl-2,3-dihydro-1,4-benzoxazepin-5-one] | 0.1 to 1
3 | CC1(C)CN(C[C@H](O)CN2CCc3ccccc3C2)C(=O)c2ccc(CN3CCN(C=O)CC3)cc2O1 [Example 169, 4-[[4-[(2R)-3-(3,4-dihydro-1H-isoquinolin-2-yl)-2-hydroxy-propyl]-2,2-dimethyl-5-oxo-3H-1,4-benzoxazepin-8-yl]methyl]piperazine-1-carbaldehyde] | 0.1 to 1
4 | CCN1CCCC(Oc2ccc3c(c2)OCCN(C[C@H](O)CN2CCc4ccccc4C2)C3=O)C1 (stereo partly drawn) [Example 69, 4-[(2R)-3-(3,4-dihydro-1H-isoquinolin-2-yl)-2-hydroxy-propyl]-8-[(1-ethyl-3-piperidyl)oxy]-2,3-dihydro-1,4-benzoxazepin-5-one] | 0.001 to 0.1
5 | CN1CCC(COc2ccc3c(c2)N(C)CCN(C[C@H](O)CN2CCc4ccccc4C2)C3=O)C1 (stereo partly drawn) [Example 131, 4-[(2R)-3-(3,4-dihydro-1H-isoquinolin-2-yl)-2-hydroxy-propyl]-1-methyl-8-[(1-methylpyrrolidin-3-yl)methoxy]-2,3-dihydro-1,4-benzodiazepin-5-one] | 0.1 to 1
6 | CCN1CC=C(c2ccc3c(c2)OCCN(C[C@H](O)CN2CCc4ccccc4C2)C3=O)CC1 [Example 18, 4-[(2R)-3-(3,4-dihydro-1H-isoquinolin-2-yl)-2-hydroxy-propyl]-8-(1-ethyl-3,6-dihydro-2H-pyridin-4-yl)-2,3-dihydro-1,4-benzoxazepin-5-one] | 0.1 to 1
7 | CNCC#Cc1ccc2c(c1)OCCN(C[C@H](O)CN1CCc3ccccc3C1)C2=O [Example 229, 4-[(2R)-3-(3,4-dihydro-1H-isoquinolin-2-yl)-2-hydroxy-propyl]-8-[3-(methylamino)pro-1-pynyl]-2,3-dihydro-1,4-benzoxazepin-5-one] | 0.1 to 1
8 | Cc1c(-c2ccc3c(c2)OCCN(C[C@H](O)CN2CCc4ccccc4C2)C3=O)cnn1C [Example 233, 4-[(2R)-3-(3,4-dihydro-1H-isoquinolin-2-yl)-2-hydroxy-propyl]-8-(1,5-dimethylpyrazol-4-yl)-2,3-dihydro-1,4-benzoxazepin-5-one] | 0.1 to 1
9 | O=C1c2ccc(CN3CCC(O)C3)cc2OCCN1C[C@H](O)CN1CCc2ccccc2C1 (stereo partly drawn) [Example 35, 4-[(2R)-3-(3,4-dihydro-1H-isoquinolin-2-yl)-2-hydroxy-propyl]-8-[(3-hydroxypyrrolidin-1-yl)methyl]-2,3-dihydro-1,4-benzoxazepin-5-one] | 0.1 to 1
10 | CN1CCC(COc2ccc3c(c2)OCCN(C[C@H](O)CN2CCc4ccccc4C2)C3=O)C1 (stereo partly drawn) [Example 106, 4-[(2R)-3-(3,4-dihydro-1H-isoquinolin-2-yl)-2-hydroxy-propyl]-8-[(1-methylpyrrolidin-3-yl)methoxy]-2,3-dihydro-1,4-benzoxazepin-5-one] | 0.1 to 1
11 | CC1(C)CN(C[C@H](O)CN2CCc3ccccc3C2)C(=O)c2ccc(OCc3ccncc3)cc2O1 [Example 113, 4-[(2R)-3-(3,4-dihydro-1H-isoquinolin-2-yl)-2-hydroxy-propyl]-2,2-dimethyl-8-(4-pyridylmethoxy)-3H-1,4-benzoxazepin-5-one] | 0.1 to 1
12 | O=C1c2ccccc2OCCN1CC(O)CN1CCc2ccccc2C1 (centres unmarked) [Example 147, 4-[3-(3,4-dihydro-1H-isoquinolin-2-yl)-2-hydroxy-propyl]-2,3-dihydro-1,4-benzoxazepin-5-one] | 0.1 to 1
13 | O=C1c2ccc(OC3CCN(C4CCC4)CC3)cc2OCCN1C[C@H](O)CN1CCc2ccccc2C1 [Example 91, 8-[(1-cyclobutyl-4-piperidyl)oxy]-4-[(2R)-3-(3,4-dihydro-1H-isoquinolin-2-yl)-2-hydroxy-propyl]-2,3-dihydro-1,4-benzoxazepin-5-one] | 0.1 to 1
14 | CN(C)Cc1ccc2c(c1)OCCN(C[C@H](O)CN1CCc3ccccc3C1)C2=O [Example 25, 4-[(2R)-3-(3,4-dihydro-1H-isoquinolin-2-yl)-2-hydroxy-propyl]-8-[(dimethylamino)methyl]-2,3-dihydro-1,4-benzoxazepin-5-one] | 0.1 to 1
15 | CN1CCCC(Oc2ccc3c(c2)OCCN(C[C@H](O)CN2CCc4ccccc4C2)C3=O)C1 (stereo partly drawn) [Example 68, 4-[(2R)-3-(3,4-dihydro-1H-isoquinolin-2-yl)-2-hydroxy-propyl]-8-[(1-methyl-3-piperidyl)oxy]-2,3-dihydro-1,4-benzoxazepin-5-one] | 0.1 to 1
16 | CC(=O)N1CC[C@H](Oc2ccc3c(c2)N(C)CCN(C[C@H](O)CN2CCc4ccccc4C2)C3=O)C1 [Example 124, 8-[(3S)-1-acetylpyrrolidin-3-yl]oxy-4-[(2R)-3-(3,4-dihydro-1H-isoquinolin-2-yl)-2-hydroxy-propyl]-1-methyl-2,3-dihydro-1,4-benzodiazepin-5-one] | 0.1 to 1
17 | CN1CCC(Oc2ccc3c(c2)N(C)CCN(C[C@H](O)CN2CCc4ccccc4C2)C3=O)CC1 [Example 125, 4-[(2R)-3-(3,4-dihydro-1H-isoquinolin-2-yl)-2-hydroxy-propyl]-1-methyl-8-[(1-methyl-4-piperidyl)oxy]-2,3-dihydro-1,4-benzodiazepin-5-one] | 0.1 to 1
18 | CN1CCC[C@H](Oc2ccc3c(c2)OCCN(C[C@H](O)CN2CCc4ccccc4C2)C3=O)C1 [Example 213, 4-[(2R)-3-(3,4-dihydro-1H-isoquinolin-2-yl)-2-hydroxy-propyl]-8-[(1-methyl-3-piperidyl)oxy]-2,3-dihydro-1,4-benzoxazepin-5-one] | 0.1 to 1
19 | O=C1c2ccc(OC3CCN(CCO)CC3F)cc2OCCN1C[C@H](O)CN1CCc2ccccc2C1 (stereo partly drawn) [Example 208, 4-[(2R)-3-(3,4-dihydro-1H-isoquinolin-2-yl)-2-hydroxy-propyl]-8-[[3-fluoro-1-(2-hydroxyethyl)-4-piperidyl]oxy]-2,3-dihydro-1,4-benzoxazepin-5-one] | 0.1 to 1
20 | O=C1c2ccc(OCC3CCCCC3)cc2OCCN1C[C@H](O)CN1CCc2ccccc2C1 [Example 66, 8-(cyclohexylmethoxy)-4-[(2R)-3-(3,4-dihydro-1H-isoquinolin-2-yl)-2-hydroxy-propyl]-2,3-dihydro-1,4-benzoxazepin-5-one] | 0.1 to 1
21 | CCN1CC(Oc2ccc3c(c2)OCCN(C[C@H](O)CN2CCc4ccccc4C2)C3=O)C1 [Example 94, 4-[(2R)-3-(3,4-dihydro-1H-isoquinolin-2-yl)-2-hydroxy-propyl]-8-(1-ethylazetidin-3-yl)oxy-2,3-dihydro-1,4-benzoxazepin-5-one] | 0.1 to 1
22 | CC(c1ccc2c(n1)OC(C)(C)CN(C[C@H](O)CN1CCc3ccccc3C1)C2=O)N1CCOCC1 (stereo partly drawn) [Example 246, 4-[(2R)-3-(3,4-dihydro-1H-isoquinolin-2-yl)-2-hydroxy-propyl]-2,2-dimethyl-8-(1-morpholinoethyl)-3H-pyrido[3,2-f][1,4]oxazepin-5-one] | 0.1 to 1
23 | CN1CCN(Cc2ccc3c(c2)OCCN(C[C@H](O)CN2CCc4ccccc4C2)C3=O)CC1 [Example 54, 4-[(2R)-3-(3,4-dihydro-1H-isoquinolin-2-yl)-2-hydroxy-propyl]-8-[(4-methylpiperazin-1-yl)methyl]-2,3-dihydro-1,4-benzoxazepin-5-one] | 0.001 to 0.1
24 | O=C1c2ccc(OC(F)(F)F)cc2CCCN1CC(O)CN1CCc2ccccc2C1 (centres unmarked) [Example 4, 2-[3-(3,4-dihydro-1H-isoquinolin-2-yl)-2-hydroxy-propyl]-7-(trifluoromethoxy)-4,5-dihydro-3H-2-benzazepin-1-one] | 0.1 to 1
25 | CC(=O)N1CC(Oc2ccc3c(c2)N(C)CCN(C[C@H](O)CN2CCc4ccccc4C2)C3=O)C1 [Example 122, 8-(1-acetylazetidin-3-yl)oxy-4-[(2R)-3-(3,4-dihydro-1H-isoquinolin-2-yl)-2-hydroxy-propyl]-1-methyl-2,3-dihydro-1,4-benzodiazepin-5-one] | 0.1 to 1
26 | CC(=O)N1CC(Oc2ccc3c(c2)OC(C)(C)CN(C[C@H](O)CN2CCc4ccccc4C2)C3=O)C1 [Example 114, 8-(1-acetylazetidin-3-yl)oxy-4-[(2R)-3-(3,4-dihydro-1H-isoquinolin-2-yl)-2-hydroxy-propyl]-2,2-dimethyl-3H-1,4-benzoxazepin-5-one] | 0.001 to 0.1
27 | O=C1c2ccc(OC3CCN(C(=O)C(F)F)CC3)cc2OCCN1C[C@H](O)CN1CCc2ccccc2C1 [Example 160, 8-[[1-(2,2-difluoroacetyl)-4-piperidyl]oxy]-4-[(2R)-3-(3,4-dihydro-1H-isoquinolin-2-yl)-2-hydroxy-propyl]-2,3-dihydro-1,4-benzoxazepin-5-one] | 0.001 to 0.1
28 | CN1CCC(Oc2ccc3c(n2)OC(C)(C)CN(C[C@H](O)CN2CCc4ccccc4C2)C3=O)CC1 [Example 145, 4-[(2R)-3-(3,4-dihydro-1H-isoquinolin-2-yl)-2-hydroxypropyl]-2,2-dimethyl-8-[(1-methyl-4-piperidyl)oxy]-3H-pyrido[3,2-f][1,4]oxazepin-5-one] | 0.1 to 1
29 | O=C(c1ccc2c(c1)OCCN(C[C@H](O)CN1CCc3ccccc3C1)C2=O)C1CCCC1 [Example 217, 8-(cyclopentanecarbonyl)-4-[(2R)-3-(3,4-dihydro-1H-isoquinolin-2-yl)-2-hydroxy-propyl]-2,3-dihydro-1,4-benzoxazepin-5-one] | 0.1 to 1
